Measured values as given in PubChem BioAssay (NCI).
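Following 48 hours of exposure in 96-well plates, responses at five concentrations were used to interpolate endpoints linearly. At the TGI there is no net growth.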

Columns and labels:
Experiment in all cases: DTP human tumour cell line panel, 48 h
OVCAR-4 ovarian = test system: OVCAR-4 ovarian
SW-620 colon = test system: SW-620 colon
HOP-92 NSCLC = test system: HOP-92 NSCLC
RXF 393 renal = test system: RXF 393 renal
SN12C renal = test system: SN12C renal
OVCAR-5 ovarian = test system: OVCAR-5 ovarian
M19-MEL melanoma = test system: M19-MEL melanoma
A549 NSCLC = test system: A549 NSCLC
SK-OV-3 ovarian = test system: SK-OV-3 ovarian
OVCAR-3 ovarian = test system: OVCAR-3 ovarian
K-562 leukemia = test system: K-562 leukemia
ACHN renal = test system: ACHN renal
SNB-75 CNS = test system: SNB-75 CNS
UACC-257 melanoma = test system: UACC-257 melanoma
M14 melanoma = test system: M14 melanoma
XF 498 CNS = test system: XF 498 CNS
SF-539 CNS = test system: SF-539 CNS
NCI-H23 lung = test system: NCI-H23 lung
UACC-62 melanoma = test system: UACC-62 melanoma
CAKI-1 renal = test system: CAKI-1 renal
CCRF-CEM leukemia = test system: CCRF-CEM leukemia
OVCAR-8 ovarian = test system: OVCAR-8 ovarian
IGROV1 ovarian = test system: IGROV1 ovarian
SF-268 CNS = test system: SF-268 CNS
HCT-116 colon = test system: HCT-116 colon
DMS 114 small cell lung = test system: DMS 114 small cell lung
786-0 renal = test system: 786-0 renal
SNB-19 CNS = test system: SNB-19 CNS
A498 renal = test system: A498 renal
MALME-3M melanoma = test system: MALME-3M melanoma
TK-10 renal = test system: TK-10 renal
NCI-H522 lung = test system: NCI-H522 lung
U251 CNS = test system: U251 CNS
KM12 colon = test system: KM12 colon
EKVX NSCLC = test system: EKVX NSCLC
SF-295 CNS = test system: SF-295 CNS
NCI-H226 lung = test system: NCI-H226 lung
MOLT-4 leukemia = test system: MOLT-4 leukemia
RXF-631 renal = test system: RXF-631 renal
LXFL 529 NSCLC = test system: LXFL 529 NSCLC
UO-31 renal = test system: UO-31 renal
DMS 273 small cell lung = test system: DMS 273 small cell lung
SK-MEL-2 melanoma = test system: SK-MEL-2 melanoma
SK-MEL-28 melanoma = test system: SK-MEL-28 melanoma
SNB-78 CNS = test system: SNB-78 CNS
HL-60(TB) leukemia = test system: HL-60(TB) leukemia
HOP-62 NSCLC = test system: HOP-62 NSCLC
SR leukemia = test system: SR leukemia
SK-MEL-5 melanoma = test system: SK-MEL-5 melanoma
HT29 colon = test system: HT29 colon
COLO 205 colon = test system: COLO 205 colon
HOP-18 NSCLC = test system: HOP-18 NSCLC
DLD-1 colon = test system: DLD-1 colon
LOX IMVI melanoma = test system: LOX IMVI melanoma
HCC-2998 colon = test system: HCC-2998 colon
KM20L2 colon = test system: KM20L2 colon

Measured: TGI

CO/C=C(\Br)c1ccc2c(c1)OCO2
not listed: SK-MEL-5 melanoma | HT29 colon | COLO 205 colon | HOP-18 NSCLC | DLD-1 colon | LOX IMVI melanoma | HCC-2998 colon | KM20L2 colon
> 100 µM: all other assays above

COc1cc(/C=C2\NC(=O)C3Cc4c(OC)c(C)c(OC)c(OC)c4C2N3C)c(OC)c(C)c1OC (configuration not stated)
not listed: SW-620 colon | SK-MEL-2 melanoma
> 100 µM: all other assays above
